Consider 22 compounds from patent EP0364581A1, “METHOD OF STERILIZING PLANT POLLEN” (VSESOJUZNY NAUCHNO-ISSLEDOVATELSKY INST. SELSKOKHOZYAISTV. …, priority 1988, dated 1989).

Assay in all cases: field test of gametocidal activity (sterilisation of anthers)
Holding throughout (assay type): in vivo

The test system of assay [1] is diploidem Roggen Sorte Gibrid 1861/79. Conditions: V. Periode, 1%ige wäßrige Emulsion, 6 kg/ha; for Prozentsatz des Ansetzens der Körner bei freier Bestäubung: control = 100. From the text: (§1) Die gametozide Aktivität der erfindungsgemäßen Sterilisationsmittel war in Feldversuch in verschiedenen bodenklimatischen Zonen mit Teilstücken von 10 m^2 Größe in drei-- bis viermaliger Wiederholung nachgewiesen. Jedes Sterilisationsmittel wurde mindestens 5 Jahre lang geprüft.
(§2) Die Entwicklung der Perioden der Organogenese wird zytologisch überwacht. Die Behandlung von Pflanzen mit dem Sterilisationsmittel erfolgt am Anfang der fünften Periode der Organogenese nach Kupermann.
(§3) Mit dem Ahrenschieben verwirklicht man die Isolierung von Hauptähren und anderen Stockwerken in Pergamentbeuteln. Bei Weizen und Tritikale werden Einzelisolatoren verwendet. Bei Roggen schließt man je 1 Ähre von 5 bis 7 verschiedenen nebeneinander befindlichen Pflanzen in einen gemeinsamen Isolator ein. Bei Hirse wird jede Rispe getrennt isoliert. Der Sterilitätsprozentsatz (X) für Weizen, Roggen, Tritikale und Hirse wird nach der Formel [formula]
(§4) Samen von unbehandelten Kontrollpflanzen ermittelt.
(§5) Die Kornzahl in nicht isolierten Ähren von Kontrollpflanzen wird bedingt für 100% Ansetzen bei freier Bestäubung angenommen.
(§6) Um zuverlässige Angaben zu erhalten, verwendet man 20 bis 25 Isolatoren jeder Wiederholung für Weizen und Tritikale, 10 bis 15 Isolatoren jeder Wiederholung für Roggen und Hirse.
Pflanzen von diploidem Roggen Sorte Gibrid 1861/79 werden in der V. Periode der Organogenese (nach Kupermann) mit einer 1%igen wäßrigen Emulsion von Phthalsäurediisobutylester, Kaliumsalz der 2-Methyl-3-zyklohexenkarbonsäure, 2--Methyl-3-zyklohexenkarbonsäuremethylester, Ammoniumsalz der 2-Methyl-3-zyklohexenkarbonsäure, Phthalsäurediallylester, Phthalsäuredihexylester, Ammoniumsalz der p-Hydroxybenzoesäure behandelt. Die Emulsion enthält 0,01 Masse% Dimethylsulfoxid und 0,1 Masse% C12-C14-Kalziumalkylbenzolsulfonat. Der Verbrauch an Präparat beträgt 6 kg/ha. Als Kontrolle dienen Pflanzen, behandelt mit einem Verdünner ohne Sterilisationsmittel.

Assay [2] relates to tetraploidem Roggen Sorte Belta. The settings on record: V. Periode, 1%ige wäßrige Emulsion, 6 kg/ha; for Prozentsatz des Ansetzens bei freier Bestäubung: control = 100.
From the text: as §1, §2, §3, §4, §5, §6
Pflanzen von tetraploidem Roggen Sorte Belta werden in der V. Periode der Organogenese (nach Kupermann) mit einer 1%igen wäßrigen Emulsion von Kaliumsalz der 2-Methyl-3-zy- klohexenkarbonsäure, 2-Methyl-3-zyklohexenkarbonsäuremethyl- ester, Phthalsäuredibutylester, Phthalsäuredihexylester, Phthalsäuredipropylester, Phthalsäurediallylester, Phthalsäurediisobutylester, Kaliumsalz der […] behandelt. Die Emulsion enthält 0,01 Masse% Dimethylsuloxid und 0,1 Masse% C12-C14-Kalziumalkylbenzolsulfonat. Der Verbrauch an Präparat beträgt 6 kg/ha. Als Kontrolle dienen Pflanzen behandelt mit einem Verdünner ohne Sterilisationsmittel.

Assay [3] relates to Hirse Sorte Mironovskoe 94. The settings on record: V. Periode, 1%ige wäßrige Emulsion, 10 kg/ha; for Prozentsatz des Ansetzens der Körner bei freier Bestäubung: control = 100.
From the text: as §1, §2, §3, §4, §5, §6
Pflanzen der Hirse Sorte Mironovskoe 94 werden in der V. Periode der Organogenese (nach Kupermann) mit einer l%igen wäßrigen Emulsion von Kaliumsalz der 2-Methyl-3-zyklohexen- karbonsäure, 2-Methyl-3-zyklohexenkarbonsäuremethylester, Phthalsäuredihexylester, Phthalsäuredibutylester, Phthalsäuredipropylester, Natriumsalz der p-Hydroxybenzoesäure, Phthalsäurediäthylester, Phthalsäurediallylester behandelt. Die Emulsion enthält 0,01 Masse% Dimethylformamid und 0,1 Masse% C12-C14-Kalziumalkylbenzolsulfonat. Der Verbrauch an Präparat beträgt 10 kg/ha. Als Kontrolle dienen Pflanzen, behandelt mit einem Verdünner ohne Sterilisationsmittel. Die Prüfergebnisse sind in der Tabelle 17 angeführt. […] Periode der Organogenese erhalten.

In assay [4] the test system is Sommerweizen Moskovskaya 35. The settings on record: V. Periode, 1%ige wäßrige Emulsion, 10 kg/ha; for Prozentsatz des Ansetzens der freier Bestäubung: control = 100.
From the text: as §1, §2, §3, §4, §5, §6
Pflanzen des Sommerweizens Sorte Moskovskaya 35 werden in der V. Periode der Organogenese (nach Kupermann) mit einer 1%igen wäßrigen Emulsion von Kaliumsalz der 2-Methyl-3-zyklohexenkarbonsäure,2-Methyl-3-zyklohexenkarbon- äthylester, Phthalsäuredipropylester, Phthalsäurediallylester, Phthalsäurediisobutylester, Kaliumsalz der Benzoesäure behandelt. Die Emulsion enthält 0,01 Masse% Dimethylsulfoxid und 0,1 Masse% C12-C14-Kalziumalkylbenzolsulfonat. Der Verbrauch an Präparat beträgt 10 kg/ha. Als Kontrolle dienen Pflanzen, behandelt mit einem Verdünner ohne Sterilisationsmittel. […]
In allen Fällen dienen als Kontrolle Pflanzen, behandelt mit einem Verdünner ohne Sterilisationsmittel. Die Prüfergebnisse sind in der Tabelle 20 angeführt. […] Periode der Organogenese erhalten.

Each structure is given as a SMILES string.

On to `C=CCOC(=O)c1ccccc1C(=O)OCC=C` [Beispiel 86, Phthalsäurediallylester], for which, in assay [1], the “Kornzahl der Ähre bei freier Bestäubung” value is 59,6, the “Kornzahl der Ähre im Isolator” value was 0,0, the “Prozentsatz der Sterilität” value is recorded as 100,0% and the “Prozentsatz des Ansetzens der Körner bei freier Bestäubung” value is 95,0%.

For `C=CCOC(=O)c1ccccc1C(=O)OCC=C` [Beispiel 53, Phthalsäurediallylester], in assay [2], the “Kornzahl der Ähre bei freier Bestäubung” value is recorded as 41,6, the “Kornzahl der Ähre im Isolator” value is reported as 0,3, the “Prozentsatz der Sterilität” value is on record as 99,7% and the “Prozentsatz des Ansetzens bei freier Bestäubung” value was 88,3%.

As to `CC(C)COC(=O)c1ccccc1C(=O)OCC(C)C` [Beispiel 54, Phthalsäurediisobutylester], in assay [2], the “Kornzahl der Ähre bei freier Bestäubung” value was 40,4, the “Kornzahl der Ähre im Isolator” value was 0,0, the “Prozentsatz der Sterilität” value was 100,0% and the “Prozentsatz des Ansetzens bei freier Bestäubung” value is reported as 85,8%.

Consider `O=C(O)c1ccc(O)cc1` [Beispiel 88, Ammoniumsalz der p-Hydroxybenzoesäure], for which, in assay [1], the “Kornzahl der Ähre bei freier Bestäubung” value is 68,9, the “Kornzahl der Ähre im Isolator” value is 0,8, the “Prozentsatz der Sterilität” value was 98,5% and the “Prozentsatz des Ansetzens der Körner bei freier Bestäubung” value is 109,7%.

For the compound `O=C([O-])c1ccc(O)cc1.[Na+]` [Beispiel 94, Natriumsalz der p-Hydroxybenzoesäure], in assay [3], the “Kornzahl der Rispe bei freier Bestäubung” value is given as 400,7, the “Kornzahl der Rispe im Isolator” value was 0,0, the “Prozentsatz der Sterilität” value was 100,0% and the “Prozentsatz des Ansetzens der Körner bei freier Bestäubung” value is listed as 105,6%.

For the compound `CC1C=CCCC1C(=O)[O-].[K+]` (stereo not shown) [Beispiel 23, Kaliumsalz der 2-Methyl-3-zyklohexenkarbonsäure], in assay [4], the “Kornzahl der Ähre bei freier Bestäubung” value is 30,8, the “Kornzahl der Ähre im Isolator” value is 0,0, the “Prozentsatz der Sterilität” value was 100,0% and the “Prozentsatz des Ansetzens der freier Bestäubung” value was 92,8%.

In the case of `CC(C)COC(=O)c1ccccc1C(=O)OCC(C)C` [Beispiel 28, Phthalsäurediisobutylester], in assay [4], the “Kornzahl der Ähre bei freier Bestäubung” value is recorded as 31,8, the “Kornzahl der Ähre im Isolator” value is on record as 0,0, the “Prozentsatz der Sterilität” value is 100,0% and the “Prozentsatz des Ansetzens der freier Bestäubung” value is listed as 95,8%.

Regarding `CC1C=CCCC1C(=O)O` (stereo not shown) [Beispiel 85, Ammoniumsalz der 2-Methyl-3-zyklohexenkarbonsäure], in assay [1], the “Kornzahl der Ähre bei freier Bestäubung” value is recorded as 57,8, the “Kornzahl der Ähre im Isolator” value is recorded as 0,0, the “Prozentsatz der Sterilität” value is given as 100,0% and the “Prozentsatz des Ansetzens der Körner bei freier Bestäubung” value is 92,0%.

For `C=CCOC(=O)c1ccccc1C(=O)OCC=C` [Beispiel 96, Phthalsäurediallylester], in assay [3], the “Kornzahl der Rispe bei freier Bestäubung” value is given as 335,2, the “Kornzahl der Rispe im Isolator” value is reported as 0,0, the “Prozentsatz der Sterilität” value was 100,0% and the “Prozentsatz des Ansetzens der Körner bei freier Bestäubung” value is on record as 88,3%.

Regarding `O=C([O-])c1ccccc1.[K+]` [Beispiel 29, Kaliumsalz der Benzoesäure], in assay [4], the “Kornzahl der Ähre bei freier Bestäubung” value is recorded as 33,0, the “Kornzahl der Ähre im Isolator” value was 7,2, the “Prozentsatz der Sterilität” value is reported as 73,8% and the “Prozentsatz des Ansetzens der freier Bestäubung” value is 99,4%.

Consider `CC1C=CCCC1C(=O)O` (stereo not shown) [Beispiel 48, Kaliumsalz der 2-Methyl-3-zy-klohexenkarbonsäure], for which, in assay [2], the “Kornzahl der Ähre bei freier Bestäubung” value is reported as 45,6, the “Kornzahl der Ähre im Isolator” value is reported as 0,1, the “Prozentsatz der Sterilität” value is 99,8% and the “Prozentsatz des Ansetzens bei freier Bestäubung” value was 96,8%.

For the compound `COC(=O)C1CCC=CC1C` (stereo not shown) [Beispiel 49, 2-Methyl-3-zyklohexenkarbonsäuremethyl-ester], in assay [2], the “Kornzahl der Ähre bei freier Bestäubung” value was 44,2, the “Kornzahl der Ähre im Isolator” value was 0,0, the “Prozentsatz der Sterilität” value was 100,0% and the “Prozentsatz des Ansetzens bei freier Bestäubung” value is on record as 93,8%.

For `CCCOC(=O)c1ccccc1C(=O)OCCC` [Beispiel 52, Phthalsäuredipropylester], in assay [2], the “Kornzahl der Ähre bei freier Bestäubung” value is listed as 40,8, the “Kornzahl der Ähre im Isolator” value is 0,0, the “Prozentsatz der Sterilität” value is given as 100,0% and the “Prozentsatz des Ansetzens bei freier Bestäubung” value is 86,6%.

Turning to `CCCCCCOC(=O)c1ccccc1C(=O)OCCCCCC` [Beispiel 87, Phthalsäuredihexylester], in assay [1], the “Kornzahl der Ähre bei freier Bestäubung” value is 56,4, the “Kornzahl der Ähre im Isolator” value is recorded as 0,0, the “Prozentsatz der Sterilität” value is given as 100,0% and the “Prozentsatz des Ansetzens der Körner bei freier Bestäubung” value is on record as 89,8%.

In the case of `CCCCCCOC(=O)c1ccccc1C(=O)OCCCCCC` [Beispiel 51, Phthalsäuredihexylester], in assay [2], the “Kornzahl der Ähre bei freier Bestäubung” value is 45,9, the “Kornzahl der Ähre im Isolator” value was 0,2, the “Prozentsatz der Sterilität” value was 99,5% and the “Prozentsatz des Ansetzens bei freier Bestäubung” value was 97,4%.

In the case of `CCCOC(=O)c1ccccc1C(=O)OCCC` [Beispiel 26, Phthalsäuredipropylester], in assay [4], the “Kornzahl der Ähre bei freier Bestäubung” value is 28,6, the “Kornzahl der Ähre im Isolator” value was 1,2, the “Prozentsatz der Sterilität” value is recorded as 95,6% and the “Prozentsatz des Ansetzens der freier Bestäubung” value is given as 86,1%.

In the case of `CC1C=CCCC1C(=O)O` (stereo not shown) [Beispiel 83, Kaliumsalz der 2-Methyl-3-zyklohexenkarbonsäure], in assay [1], the “Kornzahl der Ähre bei freier Bestäubung” value is 56,7, the “Kornzahl der Ähre im Isolator” value is 0,2, the “Prozentsatz der Sterilität” value is 99,7% and the “Prozentsatz des Ansetzens der Körner bei freier Bestäubung” value is 90,2%.

Turning to `C=CCOC(=O)c1ccccc1C(=O)OCC=C` [Beispiel 27, Phthalsäurediallylester], in assay [4], the “Kornzahl der Ähre bei freier Bestäubung” value was 31,1, the “Kornzahl der Ähre im Isolator” value was 0,3, the “Prozentsatz der Sterilität” value was 98,9% and the “Prozentsatz des Ansetzens der freier Bestäubung” value was 94,0%.

Regarding `CCCCOC(=O)c1ccccc1C(=O)OCCCC` [Beispiel 50, Phthalsäuredibutylester], in assay [2], the “Kornzahl der Ähre bei freier Bestäubung” value is recorded as 43,1, the “Kornzahl der Ähre im Isolator” value is 0,0, the “Prozentsatz der Sterilität” value was 100,0% and the “Prozentsatz des Ansetzens bei freier Bestäubung” value is listed as 91,5%.

On to `CC(C)COC(=O)c1ccccc1C(=O)OCC(C)C` [Beispiel 82, Phthalsäurediisobutylester], for which, in assay [1], the “Kornzahl der Ähre bei freier Bestäubung” value is given as 57,1, the “Kornzahl der Ähre im Isolator” value is listed as 0,6, the “Prozentsatz der Sterilität” value was 98,9% and the “Prozentsatz des Ansetzens der Körner bei freier Bestäubung” value is 90,9%.

As to `CCOC(=O)C1CCC=CC1C` (stereo not shown) [Beispiel 24, 2-Methyl-3-zyklohexenkarbon-äthylester], in assay [4], the “Kornzahl der Ähre bei freier Bestäubung” value is given as 29,6, the “Kornzahl der Ähre im Isolator” value was 0,0, the “Prozentsatz der Sterilität” value was 100,0% and the “Prozentsatz des Ansetzens der freier Bestäubung” value is listed as 89,2%.

As to `COC(=O)C1CCC=CC1C` (stereo not shown) [Beispiel 84, 2--Methyl-3-zyklohexenkarbonsäuremethylester], in assay [1], the “Kornzahl der Ähre bei freier Bestäubung” value was 51,2, the “Kornzahl der Ähre im Isolator” value is 0,0, the “Prozentsatz der Sterilität” value is 100,0% and the “Prozentsatz des Ansetzens der Körner bei freier Bestäubung” value was 81,5%.
